Experimental data published in PubChem BioAssay (NCI).
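GI50 is the concentration that inhibits growth by half. TGI denotes the concentration required for complete inhibition of growth.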

Tests used:
Assay in all cases: DTP human tumour cell line panel, 384-well format
[1] = tested on: HCT-15 colon
[2] = tested on: K-562 leukemia
[3] = tested on: NCI-H522 lung
[4] = tested on: BT-549 breast
[5] = tested on: NCI-H460 NSCLC
[6] = tested on: SK-OV-3 ovarian
[7] = tested on: SK-MEL-2 melanoma
[8] = tested on: SR leukemia
[9] = tested on: HT29 colon
[10] = tested on: SK-MEL-5 melanoma
[11] = tested on: 786-0 renal
[12] = tested on: MOLT-4 leukemia
[13] = tested on: TK-10 renal
[14] = tested on: MDA-MB-435 melanoma
[15] = tested on: NCI-H23 lung
[16] = tested on: UACC-62 melanoma
[17] = tested on: PC-3 prostate
[18] = tested on: SNB-75 CNS
[19] = tested on: RPMI-8226 leukemia
[20] = tested on: HCT-116 colon
[21] = tested on: OVCAR-5 ovarian
[22] = tested on: MALME-3M melanoma
[23] = tested on: SNB-19 CNS
[24] = tested on: A498 renal
[25] = tested on: SF-268 CNS
[26] = tested on: HCC-2998 colon
[27] = tested on: A549 NSCLC
[28] = tested on: ACHN renal
[29] = tested on: SF-539 CNS
[30] = tested on: OVCAR-3 ovarian

Question: How did the GI50 [1] turn out when `Cc1ccncc1N1CCN(c2ccnc(Cl)c2)C1=O` was run?
Answer: > 100 µM

Question: What about the TGI [1] of the same molecule?
Answer: > 100 µM

Question: And the GI50 [2]?
Answer: > 100 µM

Question: What about the TGI [2] of the same molecule?
Answer: > 100 µM

Question: What about the GI50 [3] of the same molecule?
Answer: > 100 µM

Question: And the TGI [3]?
Answer: > 100 µM

Question: And the GI50 [4]?
Answer: > 100 µM

Question: And the TGI [4]?
Answer: > 100 µM

Question: What about the GI50 [5] of the same molecule?
Answer: > 100 µM

Question: What about the TGI [5] of the same molecule?
Answer: > 100 µM

Question: What about the GI50 [6] of the same molecule?
Answer: > 100 µM

Question: And the TGI [6]?
Answer: > 100 µM

Question: And the GI50 [7]?
Answer: > 100 µM

Question: What about the TGI [7] of the same molecule?
Answer: > 100 µM

Question: And the GI50 [8]?
Answer: > 100 µM

Question: And the TGI [8]?
Answer: > 100 µM

Question: What about the GI50 [9] of the same molecule?
Answer: > 100 µM

Question: What about the TGI [9] of the same molecule?
Answer: > 100 µM

Question: What about the GI50 [10] of the same molecule?
Answer: > 100 µM

Question: And the TGI [10]?
Answer: > 100 µM

Question: What about the GI50 [11] of the same molecule?
Answer: > 100 µM

Question: And the TGI [11]?
Answer: > 100 µM

Question: And the GI50 [12]?
Answer: > 100 µM

Question: And the TGI [12]?
Answer: > 100 µM

Question: And the GI50 [13]?
Answer: > 100 µM

Question: What about the TGI [13] of the same molecule?
Answer: > 100 µM

Question: And the GI50 [14]?
Answer: > 100 µM

Question: And the TGI [14]?
Answer: > 100 µM

Question: And the GI50 [15]?
Answer: > 100 µM

Question: And the TGI [15]?
Answer: > 100 µM

Question: And the GI50 [16]?
Answer: > 100 µM

Question: What about the TGI [16] of the same molecule?
Answer: > 100 µM

Question: What about the GI50 [17] of the same molecule?
Answer: > 100 µM

Question: What about the TGI [17] of the same molecule?
Answer: > 100 µM

Question: What about the GI50 [18] of the same molecule?
Answer: > 100 µM

Question: What about the TGI [18] of the same molecule?
Answer: > 100 µM

Question: And the GI50 [19]?
Answer: > 100 µM

Question: And the TGI [19]?
Answer: > 100 µM

Question: What about the GI50 [20] of the same molecule?
Answer: > 100 µM

Question: And the TGI [20]?
Answer: > 100 µM

Question: And the GI50 [21]?
Answer: > 100 µM

Question: And the TGI [21]?
Answer: > 100 µM

Question: And the GI50 [22]?
Answer: > 100 µM

Question: And the TGI [22]?
Answer: > 100 µM

Question: And the GI50 [23]?
Answer: > 100 µM

Question: And the TGI [23]?
Answer: > 100 µM

Question: And the GI50 [24]?
Answer: > 100 µM

Question: What about the TGI [24] of the same molecule?
Answer: > 100 µM

Question: And the GI50 [25]?
Answer: > 100 µM

Question: And the TGI [25]?
Answer: > 100 µM

Question: What about the GI50 [26] of the same molecule?
Answer: > 100 µM

Question: And the TGI [26]?
Answer: > 100 µM

Question: And the GI50 [27]?
Answer: > 100 µM

Question: And the TGI [27]?
Answer: > 100 µM

Question: What about the GI50 [28] of the same molecule?
Answer: > 100 µM

Question: What about the TGI [28] of the same molecule?
Answer: > 100 µM

Question: What about the GI50 [29] of the same molecule?
Answer: > 100 µM

Question: And the TGI [29]?
Answer: > 100 µM

Question: What about the GI50 [30] of the same molecule?
Answer: > 100 µM
